Laboratory results reported in US10208066B2, “Imidazopyridazine compounds and their use” (HUTCHISON MEDIPHARMA LIMITED, priority 2014, dated 2019).
Read-outs that look alike come from different tables or passages of the source.

Key:
[1] = target: PI3K-α (p110α/p85α) (Homo sapiens (Human), UniProt P42336); assay: Transcreener KINASE Assay, fluorescent determination of PI3K enzyme activity; type: biochemical
Experimental: Inhibition rates were calculated as follow: IH %=(ADP amount under 2% DMSO well−ADP amount under test compound well)/ADP amount under 2% DMSO well×100%.

[2] = target: PI3K-β (Homo sapiens, UniProt P42338); assay: as above; type: biochemical; conditions: for PI3K-β IH % (inhibition rate) / inhibition at 1 µM: at 1 μM; for inhibition at 1 µM: read-out: PI3K-β IH % (inhibition rate);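 for all read-outs here: recombinant PI3K enzyme reaction, 80 min at room temperature, ADP formed detected by far-red competitive fluorescence polarization immunoassay, inhibition relative to ADP in 2% DMSO control wells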
PI3K-β, sequence (P42338 whole entry, looked up): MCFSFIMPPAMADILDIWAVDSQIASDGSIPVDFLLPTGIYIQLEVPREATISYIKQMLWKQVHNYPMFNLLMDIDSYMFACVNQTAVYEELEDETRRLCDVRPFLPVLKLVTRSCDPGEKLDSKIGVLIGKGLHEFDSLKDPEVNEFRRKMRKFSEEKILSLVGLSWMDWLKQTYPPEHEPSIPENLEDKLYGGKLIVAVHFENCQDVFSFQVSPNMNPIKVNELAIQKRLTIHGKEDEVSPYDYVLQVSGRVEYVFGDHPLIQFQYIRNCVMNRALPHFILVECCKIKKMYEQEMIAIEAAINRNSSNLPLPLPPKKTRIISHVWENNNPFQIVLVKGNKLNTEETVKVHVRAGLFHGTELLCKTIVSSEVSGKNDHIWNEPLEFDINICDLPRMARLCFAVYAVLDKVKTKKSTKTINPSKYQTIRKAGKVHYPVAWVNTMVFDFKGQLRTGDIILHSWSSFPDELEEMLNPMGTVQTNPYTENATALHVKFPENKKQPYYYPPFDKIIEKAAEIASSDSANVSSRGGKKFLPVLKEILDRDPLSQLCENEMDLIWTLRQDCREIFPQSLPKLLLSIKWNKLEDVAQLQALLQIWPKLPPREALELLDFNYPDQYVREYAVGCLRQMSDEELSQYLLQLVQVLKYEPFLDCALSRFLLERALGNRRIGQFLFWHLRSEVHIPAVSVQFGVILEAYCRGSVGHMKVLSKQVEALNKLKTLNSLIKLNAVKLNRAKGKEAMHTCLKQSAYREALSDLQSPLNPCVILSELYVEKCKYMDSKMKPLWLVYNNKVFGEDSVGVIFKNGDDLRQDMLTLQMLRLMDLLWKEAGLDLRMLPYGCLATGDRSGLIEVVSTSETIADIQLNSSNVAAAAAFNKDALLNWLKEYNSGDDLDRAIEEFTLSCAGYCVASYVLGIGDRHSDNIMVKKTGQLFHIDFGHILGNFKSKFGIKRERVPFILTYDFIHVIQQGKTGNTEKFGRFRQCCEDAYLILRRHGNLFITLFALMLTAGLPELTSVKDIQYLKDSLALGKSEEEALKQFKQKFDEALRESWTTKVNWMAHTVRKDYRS
Experimental: (§1) It is a universal, homogenous, high throughput screening (HTS) technology using a far-red, competitive fluorescence polarization immunoassay based on the detection of ADP to monitor the activity of enzymes that catalyze group transfer reactions. […] The reaction mixture was added into desired wells of a 96-well plate. The plate was sealed and incubated for 80 min at room temperature. • 2) Next, 25 uL ADP detection mix was added into each well. The plate was sealed again and incubated for 60 min at room temperature. Then fluorescence polarization was measured by Tecan Infinite F500 Reader.
(§2) Data was analyzed and IC50 values were generated using the add-in software for Microsoft Excel, Xlfit™ (version 5.3).

[3] = tested on: AKT phosphorylation (p-AKT Ser473) in Ramos cells; assay: Inhibition of AKT phosphorylation in Ramos cell line (anti-IgM stimulated); type: cell-based; conditions: Homo sapiens, read-out: IC50, inhibition of AKT phosphorylation
Experimental: 6×10^4/mL Ramos cells (ATCC, CRL-1596; cells were cultured in RPMI1640 media with 10% FBS) were seeded into a 96-well plate (Beckman Dickinson, No. 356692) at 80 uL/well, 4,800 cells/well. After incubation for 3 hr at 37° C. under 5% CO2, Ramos cells were treated with 10 uL/well various concentrations of test compound (final concentrations of the test compound: 1 uM, 0.3 uM, 0.1 uM, 0.037 uM, 0.012 uM, 0.0041 uM, 0.0014 uM and 0.0005 uM) or 0.3% DMSO for 30 min, and then were stimulated with 10 uL/well 1 ug/ml Anti-IgM (Jackson Immunoresearch, 709-006-073) for 15-20 min. • 1) Cells were fixed with 100 μL of 4% pre-warmed Paraformaldehyde (2% final concentration), and incubated for 45 min at room temperature. • 2) The paraformaldehyde solution was removed. 100 μL of ice-cold methanol was added into each well and the plate was left at 4° C. for 30 min. • 3) The cells were washed for three times with 160 μL PBS. • 4) 40 μL 1:350 dilution of Rabbit anti-p-AKT(Ser^473) antibody (Cell Signaling Technology, 4060L) in antibody dilution buffer (1% BSA, in PBS) were added into each well. The plate was inculpated overnight at 4° C. • 5) The cells were washed for 3 times with 160 uL PBS. • 6) 45 μL of Goat anti-rabbit IgG Alexa488 antibody (Invitrogen, A11034) at a 1:1,000 dilution in antibody dilution buffer (1% BSA, in PBS) were added into each well. The plate was covered with foil to keep out of light and was incubated for 90 min at room temperature. • 7) The cells were washed for 3 times with 160 uL PBS. • 8) 50 μL of 1.5 μM Propidium Iodide (Sigma: P4170) solution was added into each well to determine cell number (1.5 mM Propidium iodide stock was diluted with 1:1,000 in PBS, and the final concentration was 1.5 μM). • 9) The plate was incubated at room temperature for 30 min and then was sealed with a cover-seal. • 10) The plate was loaded into the Acumen Explorer and scan with the appropriate instrument settings.
as §2

[4] = tested on: PI3Kδ signaling in basophils; assay: Inhibition of PI3Kδ signaling in basophils from human whole blood; type: cell-based; conditions: read-out: IC50, inhibition of PI3Kδ signaling in basophils
Experimental: Methods • 1) Heparinized human whole blood was mixed and pipetted into the 96 well v-bottom plate, 100 μL per well. • 2) 10 μL of stimulation buffer (1 mg/mL stock, final concentration of Recombinant human IL-3: 20 ng/mL) was added to the whole blood samples of each well and vortex gently. […] Vortex all the wells once more and incubate for 20 min at 37° C. • 5) Labeling with staining antibody: Degranulation was stopped by incubating the samples on ice for 5 min. 6 μL of staining antibody mixture (anti-CD63-FITC and anti-IgE-PE) was added into each well. Vortex and incubate the wells for 20 min in an ice bath, covered to prevent exposure to light. • 6) The whole blood samples were lysed with 300 uL RBC lysis (pre-warmed to room temperature, 20 to 25° C.). Vortex and incubate the samples for 15 min at room temperature. Spin down cells (5 min, 250×g, 4° C.). The supernatant was aspirated leaving approximately 100 μL in each well. • 7) The blood samples were lysed once more as step 6). • 8) Washing: The samples are washed once with 0.5 mL of washing solution. The plate was centrifuged (5 min, 250×g, 4° C.). The supernatant was aspirated leaving approximately 100 μL in each well. The sample in each well was washed and centrifuged once more as above. • 9) 200 μL of fixing solution (1% papraledehyde in 1% BSA/PBS) was added into each well.
as §2

[5] = tested on: SU-DHL-6 cells; assay: In vitro cell proliferation assay in SU-DHL-6 cell line (CCK-8); type: cell-based; conditions: Homo sapiens, SU-DHL-6, 72 h
Experimental: Growth inhibition assays were carried out using 10% FBS supplemented media. Cells were seeded at a concentration of 15000 cells/well in a 96 well plate. Test compound dilution at different concentrations (final concentrations of the test compound: 1 uM, 0.3 uM, 0.1 uM, 0.037 uM, 0.012 uM, 0.0041 uM, 0.0014 uM and 0.0005 uM) were added after 24 hours. Growth was assessed using Cell Counting Kit-8 (CCK-8) (Dojindo, Cat#CK04) after the test compound were incubated for 72 h. Absorbance was read at the wave length 450 nm on Multiskan MK3 machine (Thermo).
as §2

[6] = target: PI3K-δ (p110δ/p85α) (Homo sapiens (Human), UniProt O00329); assay: Transcreener KINASE Assay, fluorescent determination of PI3K enzyme activity; type: biochemical;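 note: ADP formed by the kinase detected via far-red competitive fluorescence polarization immunoassay after 80 min room-temperature reaction, inhibition relative to 2% DMSO wells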
PI3K-δ (p110δ/p85α), sequence (O00329 whole entry, species assumed): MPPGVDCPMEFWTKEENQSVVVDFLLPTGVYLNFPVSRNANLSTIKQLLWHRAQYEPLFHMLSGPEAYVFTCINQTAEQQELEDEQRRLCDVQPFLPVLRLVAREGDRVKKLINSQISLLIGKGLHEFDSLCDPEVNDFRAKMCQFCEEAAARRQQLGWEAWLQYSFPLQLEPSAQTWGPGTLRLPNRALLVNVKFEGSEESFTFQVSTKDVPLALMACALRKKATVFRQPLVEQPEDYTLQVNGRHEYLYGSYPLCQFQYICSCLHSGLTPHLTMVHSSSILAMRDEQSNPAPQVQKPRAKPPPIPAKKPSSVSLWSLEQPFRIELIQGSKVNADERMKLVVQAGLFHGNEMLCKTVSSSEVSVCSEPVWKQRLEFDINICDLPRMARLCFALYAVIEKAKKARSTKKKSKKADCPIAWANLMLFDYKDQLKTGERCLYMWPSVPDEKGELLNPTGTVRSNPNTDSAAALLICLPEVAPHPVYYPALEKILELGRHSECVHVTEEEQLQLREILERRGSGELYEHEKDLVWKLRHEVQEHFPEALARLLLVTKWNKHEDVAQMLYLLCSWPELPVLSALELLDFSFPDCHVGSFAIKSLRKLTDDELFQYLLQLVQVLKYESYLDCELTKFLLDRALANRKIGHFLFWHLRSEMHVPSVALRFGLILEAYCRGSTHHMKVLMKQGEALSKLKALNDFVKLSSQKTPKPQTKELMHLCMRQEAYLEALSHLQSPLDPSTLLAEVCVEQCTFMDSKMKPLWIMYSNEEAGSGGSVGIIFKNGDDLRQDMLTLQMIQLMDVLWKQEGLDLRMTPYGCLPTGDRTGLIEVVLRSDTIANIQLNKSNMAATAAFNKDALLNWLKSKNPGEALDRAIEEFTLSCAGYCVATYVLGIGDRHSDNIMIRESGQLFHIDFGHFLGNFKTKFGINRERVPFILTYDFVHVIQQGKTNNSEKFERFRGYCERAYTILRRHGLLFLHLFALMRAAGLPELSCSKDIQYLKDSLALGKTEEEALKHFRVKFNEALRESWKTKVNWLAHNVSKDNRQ
PI3K-δ (p110δ/p85α), sequence (P27986 whole entry partner, species assumed): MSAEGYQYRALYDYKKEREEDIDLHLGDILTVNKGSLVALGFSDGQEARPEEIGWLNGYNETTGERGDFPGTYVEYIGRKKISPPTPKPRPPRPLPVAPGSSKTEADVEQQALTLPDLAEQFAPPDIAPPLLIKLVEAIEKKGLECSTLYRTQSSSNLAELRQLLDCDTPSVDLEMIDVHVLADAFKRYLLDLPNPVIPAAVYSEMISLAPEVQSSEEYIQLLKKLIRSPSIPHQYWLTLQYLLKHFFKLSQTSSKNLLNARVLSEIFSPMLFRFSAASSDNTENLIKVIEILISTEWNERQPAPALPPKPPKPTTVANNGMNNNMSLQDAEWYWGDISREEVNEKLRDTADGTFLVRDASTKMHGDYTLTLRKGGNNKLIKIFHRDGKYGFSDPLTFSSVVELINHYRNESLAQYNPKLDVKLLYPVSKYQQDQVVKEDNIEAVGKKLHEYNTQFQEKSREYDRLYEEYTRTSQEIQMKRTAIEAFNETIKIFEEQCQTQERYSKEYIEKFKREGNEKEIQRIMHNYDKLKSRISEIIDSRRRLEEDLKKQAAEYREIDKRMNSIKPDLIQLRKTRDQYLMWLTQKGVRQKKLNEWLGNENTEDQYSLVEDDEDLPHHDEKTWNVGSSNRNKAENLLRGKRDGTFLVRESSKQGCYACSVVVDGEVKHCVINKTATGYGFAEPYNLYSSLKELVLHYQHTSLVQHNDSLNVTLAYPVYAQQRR
Experimental: as §1, §2

[7] = target: PI3K-γ (p110γ) (Homo sapiens (Human), UniProt P48736); assay: as above; type: biochemical; conditions: for inhibition at 1 µM: read-out: PI3K-γ IH % (inhibition rate);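 for all read-outs here: ADP produced by p110γ kinase reaction, 80 min at room temperature, detected by far-red fluorescence polarization immunoassay, inhibition relative to 2% DMSO control wells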
PI3K-γ (p110γ), sequence (P48736 whole entry, species assumed): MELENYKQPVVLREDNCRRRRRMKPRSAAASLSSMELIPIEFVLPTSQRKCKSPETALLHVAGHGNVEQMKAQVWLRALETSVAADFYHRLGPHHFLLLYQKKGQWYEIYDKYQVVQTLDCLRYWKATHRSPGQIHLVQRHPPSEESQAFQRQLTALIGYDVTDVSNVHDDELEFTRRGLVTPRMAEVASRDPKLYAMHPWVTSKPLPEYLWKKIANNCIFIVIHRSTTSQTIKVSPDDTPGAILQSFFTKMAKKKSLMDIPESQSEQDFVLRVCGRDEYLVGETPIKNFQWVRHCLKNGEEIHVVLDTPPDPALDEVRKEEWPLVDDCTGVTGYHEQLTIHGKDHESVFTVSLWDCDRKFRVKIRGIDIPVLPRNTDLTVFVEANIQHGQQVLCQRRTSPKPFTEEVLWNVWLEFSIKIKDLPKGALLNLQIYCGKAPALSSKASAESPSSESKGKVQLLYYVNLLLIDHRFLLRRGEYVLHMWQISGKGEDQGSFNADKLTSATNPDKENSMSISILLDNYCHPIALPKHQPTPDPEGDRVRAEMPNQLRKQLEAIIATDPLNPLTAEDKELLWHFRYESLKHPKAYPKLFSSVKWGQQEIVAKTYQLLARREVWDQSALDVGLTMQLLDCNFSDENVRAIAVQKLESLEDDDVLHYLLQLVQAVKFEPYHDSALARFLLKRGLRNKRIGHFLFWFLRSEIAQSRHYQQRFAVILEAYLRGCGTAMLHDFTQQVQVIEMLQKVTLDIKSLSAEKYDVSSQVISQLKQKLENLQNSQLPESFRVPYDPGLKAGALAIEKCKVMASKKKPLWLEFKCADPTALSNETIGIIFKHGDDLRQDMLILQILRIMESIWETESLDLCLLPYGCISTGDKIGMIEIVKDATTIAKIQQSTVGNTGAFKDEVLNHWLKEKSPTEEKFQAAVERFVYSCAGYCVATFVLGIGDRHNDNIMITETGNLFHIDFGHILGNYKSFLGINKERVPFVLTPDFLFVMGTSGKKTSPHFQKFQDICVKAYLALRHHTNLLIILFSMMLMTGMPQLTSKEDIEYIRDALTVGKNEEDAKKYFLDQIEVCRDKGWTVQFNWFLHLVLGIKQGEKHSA
Experimental: as §1, §2

[8] = Ramos cells, anti-IgM stimulation
[9] = human whole blood, anti-human IgE stimulation, CD63

PI3K-α (p110α/p85α), sequence (P42336 whole entry, species assumed): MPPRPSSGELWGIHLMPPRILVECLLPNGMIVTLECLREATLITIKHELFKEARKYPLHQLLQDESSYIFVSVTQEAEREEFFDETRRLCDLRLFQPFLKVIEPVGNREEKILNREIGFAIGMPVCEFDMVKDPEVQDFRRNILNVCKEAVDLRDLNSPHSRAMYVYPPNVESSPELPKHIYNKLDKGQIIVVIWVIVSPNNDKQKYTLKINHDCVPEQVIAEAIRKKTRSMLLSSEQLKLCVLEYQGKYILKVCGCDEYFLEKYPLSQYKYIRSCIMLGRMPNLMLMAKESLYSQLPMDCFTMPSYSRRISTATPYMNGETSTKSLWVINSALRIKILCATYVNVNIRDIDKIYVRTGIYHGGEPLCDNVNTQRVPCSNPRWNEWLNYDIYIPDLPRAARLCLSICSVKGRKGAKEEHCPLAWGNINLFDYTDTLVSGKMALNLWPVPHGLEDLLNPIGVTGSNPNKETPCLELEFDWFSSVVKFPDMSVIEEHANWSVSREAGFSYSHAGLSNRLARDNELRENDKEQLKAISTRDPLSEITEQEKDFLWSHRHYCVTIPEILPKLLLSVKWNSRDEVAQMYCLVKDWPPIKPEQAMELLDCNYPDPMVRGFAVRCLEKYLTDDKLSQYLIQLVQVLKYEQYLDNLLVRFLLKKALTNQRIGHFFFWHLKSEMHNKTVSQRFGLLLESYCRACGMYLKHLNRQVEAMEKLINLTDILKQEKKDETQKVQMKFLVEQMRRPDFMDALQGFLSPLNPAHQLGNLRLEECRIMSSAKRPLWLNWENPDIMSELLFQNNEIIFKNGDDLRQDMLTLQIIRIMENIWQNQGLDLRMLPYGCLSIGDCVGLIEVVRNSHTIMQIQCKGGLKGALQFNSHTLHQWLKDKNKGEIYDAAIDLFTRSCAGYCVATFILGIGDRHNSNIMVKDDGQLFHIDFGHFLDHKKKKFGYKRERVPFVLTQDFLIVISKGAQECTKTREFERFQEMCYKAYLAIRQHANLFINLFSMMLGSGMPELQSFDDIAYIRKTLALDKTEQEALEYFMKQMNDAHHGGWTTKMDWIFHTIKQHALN
PI3K-α (p110α/p85α), sequence (P27986 whole entry partner, species assumed): as the sequence (P27986 whole entry partner, species assumed) above

## CC(Nc1ncnc(N)c1C#N)c1cc2ncc(Cl)n2nc1-c1ccccc1 (racemic) [Compound 2, 4-amino-6-((1-(3-chloro-6-phenylimidazo[1,2-b]pyridazin-7-yl)ethyl)amino)pyrimidine-5-carbonitrile]
[1]
  IC50: > 1 µM

## CCC(Nc1ncnc2[nH]cnc12)c1cc2ncc(Cl)n2nc1-c1ccccc1F (single isomer, unassigned) [Compound 25]
[2]
  PI3K-β IH % (inhibition rate): 22.8%
[3]; [8]
  IC50: 0.005 µM
[4]; [9]
  IC50: 0.037 µM
[5]
  IC50: 0.032 µM

## CC[C@H](Nc1ncnc(N)c1C#N)c1cc2ncc(Cl)n2nc1-c1ccccc1 [Compound 6, (S)-4-amino-6-((1-(3-chloro-6-phenylimidazo[1,2-b]pyridazin-7-yl)propyl)amino)pyrimidine-5-carbonitrile]
[6]
  IC50: 0.001 µM
[7]; at 1 μM
  inhibition at 1 µM: 61.1%
[2]
  IC50: 0.303 µM
[1]
  IC50: > 1 µM
[3]; [8]
  IC50: 0.0003 µM
[4]; [9]
  IC50: 0.006 µM
[5]
  IC50: 0.003 µM

## C[C@H](Nc1ncnc(N)c1C#N)c1cc2ncc(Cl)n2nc1-c1ccccn1 [Compound 8, (S)-4-amino-6-((1-(3-chloro-6-(pyridin-2-yl)imidazo[1,2-b]pyridazin-7-yl)ethyl)amino)pyrimidine-5-carbonitrile]
[6]
  IC50: 0.01 µM
[7]; at 1 μM
  inhibition at 1 µM: -1.4%
[2]
  inhibition at 1 µM: 37.7%
[1]
  IC50: > 1 µM
[4]; [9]
  IC50: 0.009 µM
[5]
  IC50: 0.031 µM

## C[C@H](Nc1ncnc2[nH]cnc12)c1cc2ncc(Cl)n2nc1-c1cccc(F)c1 [Compound 16]
[6]
  IC50: 0.003 µM
[7]
  IC50: 0.326 µM
[2]
  inhibition at 1 µM: 27.5%
[1]
  IC50: > 1 µM

## C[C@H](Nc1ncnc2[nH]ccc12)c1cc2ncc(Cl)n2nc1-c1ccccc1 [Compound 17]
[6]
  IC50: 0.026 µM
[7]; at 1 μM
  inhibition at 1 µM: 61.2%
[2]
  inhibition at 1 µM: 15.8%
[1]
  IC50: > 1 µM
[4]; [9]
  IC50: 0.618 µM
[5]
  IC50: 0.172 µM

## CCC(Nc1ncnc2[nH]cnc12)c1cc2ncc(Cl)n2nc1-c1ccccc1 (centres unmarked) [Compound 18]
[6]
  IC50: 0.004 µM
[7]
  IC50: 0.617 µM
[2]
  PI3K-β IH % (inhibition rate): 42%
[1]
  IC50: > 1 µM
[4]; [9]
  IC50: 0.088 µM
[5]
  IC50: 0.026 µM

## CCC(Nc1ncnc(N)c1C#N)c1cc2ncc(Cl)n2nc1-c1ccccc1F (centres unmarked) [Compound 19]
[6]
  IC50: 0.002 µM
[7]
  IC50: 1.97 µM
[2]
  IC50: 1.07 µM
[1]
  IC50: > 1 µM
[4]; [9]
  IC50: 0.016 µM
[5]
  IC50: 0.023 µM

## C[C@@H](c1cc2ncc(Cl)n2nc1-c1ccccc1)n1cnc2c(N)ncnc21 [Compound 20, (S)-9-(1-(3-chloro-6-phenylimidazo[1,2-b]pyridazin-7-yl)ethyl)-9H-purin-6-amine]
[6]
  IC50: 0.073 µM
[7]; at 1 μM
  inhibition at 1 µM: 43.1%
[2]
  inhibition at 1 µM: 17.4%
[1]
  IC50: > 1 µM
[4]; [9]
  IC50: 0.397 µM
[5]
  IC50: 0.262 µM

## C[C@H](Nc1ncnc(N)c1-c1nn[nH]n1)c1cc2ncc(Cl)n2nc1-c1ccccc1 [Compound 21, (S)—N^4-(1-(3-chloro-6-phenylimidazo[1,2-b]pyridazin-7-yl)ethyl)-5-(2H-tetrazol-5-yl)pyrimidine-4,6-diamine]
[6]
  IC50: 0.006 µM
[7]
  IC50: 0.424 µM
[1]; at 1 μM, read-out: PI3K-α IH % (inhibition rate)
  inhibition at 1 µM: 21.7%

## CCC(Nc1ncnc(N)c1C#N)c1cc2ncc(Cl)n2nc1-c1cccc(F)c1 (centres unmarked) [Compound 24]
[6]
  IC50: 0.002 µM
[7]; at 1 μM
  inhibition at 1 µM: 44.5%
[2]
  inhibition at 1 µM: 46.6%
[3]; [8]
  IC50: 0.007 µM
[4]; [9]
  IC50: 0.011 µM
[5]
  IC50: 0.011 µM

## C[C@@H](c1cc2ncc(Cl)n2nc1-c1ccccc1)n1ccc2c(N)ncnc21 [Compound 27, (S)-7-(1-(3-chloro-6-phenylimidazo[1,2-b]pyridazin-7-yl)ethyl)-7H-pyrrolo[2,3-d]pyrimidin-4-amine]
[6]
  IC50: 0.025 µM
[7]; at 1 μM
  inhibition at 1 µM: 24.9%
[2]
  inhibition at 1 µM: 9.5%
[4]; [9]
  IC50: 0.565 µM

## CCC(Nc1ncnc(N)c1C#N)c1cc2ncc(Cl)n2nc1-c1ccccn1 (centres unmarked) [Compound 29]
[6]
  IC50: 0.003 µM
[7]; at 1 μM
  PI3K-γ IH % (inhibition rate): 35%
[2]
  IC50: 0.174 µM
[5]
  IC50: 0.011 µM

## C[C@H](Nc1ncnc(N)c1C#N)c1cc2ncc(Cl)n2nc1-c1cc(F)cc(F)c1 [Compound 30, (S)-4-amino-6-((1-(3-chloro-6-(3,5-difluorophenyl)imidazo[1,2-b]pyridazin-7-yl)ethyl)amino)pyrimidine-5-carbonitrile]
[6]
  IC50: 0.003 µM
[7]
  IC50: 0.41 µM
[2]
  IC50: 1.04 µM
[3]; Ramos
  IC50: 0.001 µM
[4]; Homo sapiens
  IC50: 0.006 µM

## Cc1ccccc1-c1nn2c(Cl)cnc2cc1[C@H](C)Nc1ncnc(N)c1C#N [Compound 31, (S)-4-amino-6-((1-(3-chloro-6-(o-tolyl)imidazo[1,2-b]pyridazin-7-yl)ethyl)amino)pyrimidine-5-carbonitrile]
[6]
  IC50: 0.004 µM
[7]
  IC50: 0.146 µM
[2]
  IC50: 0.371 µM
[3]; [8]
  IC50: 0.002 µM

## Cc1nc(N)c(C#N)c(N[C@@H](C)c2cc3ncc(Cl)n3nc2-c2ccccc2)n1 [Compound 32]
[6]
  IC50: 0.015 µM
[7]
  IC50: 0.243 µM
[2]
  inhibition at 1 µM: 23.8%
[3]; [8]
  IC50: 0.02 µM

## C[C@H](Nc1ncnc(N)c1C#N)c1cc2ncc(Cl)n2nc1-c1cc(F)ccc1F [Compound 35]
[6]
  IC50: 0.004 µM
[7]; at 1 μM
  inhibition at 1 µM: 64.6%
[2]
  inhibition at 1 µM: 67.6%
[3]; [8]
  IC50: 0.013 µM
